{"source": "ChEMBL document CHEMBL1201862", "about": "“PubChem BioAssay data set” (2004)", "key": {"[1]": {"test": "A Cell Based Secondary Assay To Explore Cytotoxicity of Compounds that Sensitize Mycobacterium Tuberculosis to Beta-Lactam Antibiotics.", "format": "functional"}, "[2]": {"target": "Epstein-Barr nuclear antigen 1 (Epstein-Barr virus (strain B95-8) (HHV-4) (Human herpesvirus 4), UniProt P03211)", "sequence (P03211 whole entry)": "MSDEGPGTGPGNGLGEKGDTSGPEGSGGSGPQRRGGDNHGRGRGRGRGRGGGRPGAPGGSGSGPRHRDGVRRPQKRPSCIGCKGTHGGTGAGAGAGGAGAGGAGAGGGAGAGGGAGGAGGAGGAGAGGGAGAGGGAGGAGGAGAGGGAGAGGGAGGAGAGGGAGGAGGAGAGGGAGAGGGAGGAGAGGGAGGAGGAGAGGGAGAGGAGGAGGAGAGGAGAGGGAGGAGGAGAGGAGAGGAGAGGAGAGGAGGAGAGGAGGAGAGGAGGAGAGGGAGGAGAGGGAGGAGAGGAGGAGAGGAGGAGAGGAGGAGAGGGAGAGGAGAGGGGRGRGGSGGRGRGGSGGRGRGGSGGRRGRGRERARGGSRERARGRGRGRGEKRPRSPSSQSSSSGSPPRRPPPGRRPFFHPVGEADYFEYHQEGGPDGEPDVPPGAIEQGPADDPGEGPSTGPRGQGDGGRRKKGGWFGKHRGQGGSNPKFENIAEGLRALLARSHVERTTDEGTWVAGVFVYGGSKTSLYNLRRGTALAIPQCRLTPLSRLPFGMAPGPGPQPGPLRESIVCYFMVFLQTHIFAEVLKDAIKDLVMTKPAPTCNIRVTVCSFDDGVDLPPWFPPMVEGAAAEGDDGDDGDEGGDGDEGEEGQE", "test": "inhibition of EBV nuclear antigen 1 DNA binding – biochemical, fluorescence polarization, 1536-well, dose response (AID 2381);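 also: fluorescence polarization of a Cy5 DNA probe bound by EBNA-1 protein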", "parameters": "species or system human gammaherpesvirus 4"}, "[3]": {"target": "Lytic switch protein BZLF1 (Epstein-Barr virus (strain B95-8) (HHV-4) (Human herpesvirus 4), UniProt P03206)", "sequence (P03206 whole entry)": "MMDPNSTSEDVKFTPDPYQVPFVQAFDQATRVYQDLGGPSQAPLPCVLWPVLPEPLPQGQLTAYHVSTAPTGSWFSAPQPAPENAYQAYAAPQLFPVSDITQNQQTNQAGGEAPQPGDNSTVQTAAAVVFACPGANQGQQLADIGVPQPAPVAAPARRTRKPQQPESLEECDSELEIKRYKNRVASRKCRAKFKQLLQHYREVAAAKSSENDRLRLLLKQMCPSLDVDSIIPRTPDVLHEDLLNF", "test": "inhibition of BZLF1 ZTA DNA binding – biochemical, fluorescence polarization, Epstein-Barr virus, 1536-well, counter-screen for EBNA-1 inhibitor project, dose response (AID 2377);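 also: fluorescence polarization of Cy5-labelled ZRE DNA probe bound by purified Zta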", "parameters": "species or system human gammaherpesvirus 4"}, "[4]": {"target": "DNA dC->dU-editing enzyme APOBEC-3A (Homo sapiens, UniProt P31941)", "sequence (P31941 whole entry)": "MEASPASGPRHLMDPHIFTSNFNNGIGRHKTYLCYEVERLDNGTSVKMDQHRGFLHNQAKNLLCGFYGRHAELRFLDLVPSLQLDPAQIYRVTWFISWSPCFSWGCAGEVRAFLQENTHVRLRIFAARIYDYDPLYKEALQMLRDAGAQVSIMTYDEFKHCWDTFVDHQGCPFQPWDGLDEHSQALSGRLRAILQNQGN", "test": "A3A deaminase inhibition for selectivity – biochemical, dose response (AID 504722)", "format": "functional"}, "[5]": {"target": "DNA dC->dU-editing enzyme APOBEC-3G (Homo sapiens, UniProt Q9HC16)", "sequence (Q9HC16 whole entry)": "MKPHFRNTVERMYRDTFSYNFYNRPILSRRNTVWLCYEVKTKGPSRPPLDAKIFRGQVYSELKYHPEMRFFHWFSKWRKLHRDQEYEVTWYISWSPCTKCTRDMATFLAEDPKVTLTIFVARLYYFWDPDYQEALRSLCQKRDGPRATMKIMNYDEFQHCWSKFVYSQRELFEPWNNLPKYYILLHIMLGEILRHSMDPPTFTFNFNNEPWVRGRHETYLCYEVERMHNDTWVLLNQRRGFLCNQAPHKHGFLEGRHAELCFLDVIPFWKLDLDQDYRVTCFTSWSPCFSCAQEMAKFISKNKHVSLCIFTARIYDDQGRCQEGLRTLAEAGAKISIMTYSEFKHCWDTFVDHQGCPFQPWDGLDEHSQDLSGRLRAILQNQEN", "test": "Dose Response confirmation of small molecule APOBEC3G DNA Deaminase Inhibitors via a fluorescence-based single-stranded DNA deaminase assay. [Related pubchem assays (depositor defined):AID493012, AID493028]", "format": "functional"}, "Large T antigen": {"target": "Large T antigen (Simian virus 40, UniProt P03070)", "sequence (P03070 whole entry)": "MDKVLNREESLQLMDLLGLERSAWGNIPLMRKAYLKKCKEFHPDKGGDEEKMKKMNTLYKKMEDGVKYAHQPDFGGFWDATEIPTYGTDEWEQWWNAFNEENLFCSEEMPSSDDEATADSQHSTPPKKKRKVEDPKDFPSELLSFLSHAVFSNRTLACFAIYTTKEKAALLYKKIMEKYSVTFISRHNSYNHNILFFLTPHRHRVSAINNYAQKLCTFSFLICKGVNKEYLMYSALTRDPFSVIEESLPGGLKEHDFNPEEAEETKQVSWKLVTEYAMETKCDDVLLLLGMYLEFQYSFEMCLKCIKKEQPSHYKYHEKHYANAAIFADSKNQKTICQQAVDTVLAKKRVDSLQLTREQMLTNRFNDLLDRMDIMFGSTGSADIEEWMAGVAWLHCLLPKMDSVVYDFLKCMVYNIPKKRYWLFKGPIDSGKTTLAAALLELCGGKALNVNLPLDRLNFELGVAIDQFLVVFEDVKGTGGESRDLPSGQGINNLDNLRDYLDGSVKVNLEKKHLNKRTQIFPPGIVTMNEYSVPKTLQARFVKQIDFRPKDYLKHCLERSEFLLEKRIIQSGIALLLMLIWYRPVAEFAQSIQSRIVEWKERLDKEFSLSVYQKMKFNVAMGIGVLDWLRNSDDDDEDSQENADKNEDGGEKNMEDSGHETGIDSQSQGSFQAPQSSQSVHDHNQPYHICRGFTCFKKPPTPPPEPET", "format": "functional, Betapolyomavirus macacae"}, "Mu-type opioid receptor": {"target": "Mu-type opioid receptor (Homo sapiens, UniProt P35372)", "sequence (P35372 whole entry)": "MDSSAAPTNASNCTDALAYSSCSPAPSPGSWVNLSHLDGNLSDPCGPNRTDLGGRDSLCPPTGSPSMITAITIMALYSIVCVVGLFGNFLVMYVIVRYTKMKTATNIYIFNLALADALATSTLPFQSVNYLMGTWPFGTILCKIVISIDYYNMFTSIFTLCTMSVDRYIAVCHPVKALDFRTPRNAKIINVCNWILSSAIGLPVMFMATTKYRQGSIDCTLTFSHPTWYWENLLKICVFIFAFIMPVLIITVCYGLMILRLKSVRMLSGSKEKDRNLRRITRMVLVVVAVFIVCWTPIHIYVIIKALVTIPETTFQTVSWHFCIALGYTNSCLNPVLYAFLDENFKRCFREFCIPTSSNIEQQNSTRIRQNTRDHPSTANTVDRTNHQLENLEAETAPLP", "test": "SAR Analysis of Antagonists of the MOR Receptor using an Image-Based Assay - Set 3. [Related pubchem assays (depositor defined):AID1777, AID1785, AID1786, AID1966, AID2133, AID2136, AID2284, AID2285, AID2420]", "format": "functional"}, "[6]": {"target": "Delta-type opioid receptor (Homo sapiens, UniProt P41143)", "sequence (P41143 whole entry)": "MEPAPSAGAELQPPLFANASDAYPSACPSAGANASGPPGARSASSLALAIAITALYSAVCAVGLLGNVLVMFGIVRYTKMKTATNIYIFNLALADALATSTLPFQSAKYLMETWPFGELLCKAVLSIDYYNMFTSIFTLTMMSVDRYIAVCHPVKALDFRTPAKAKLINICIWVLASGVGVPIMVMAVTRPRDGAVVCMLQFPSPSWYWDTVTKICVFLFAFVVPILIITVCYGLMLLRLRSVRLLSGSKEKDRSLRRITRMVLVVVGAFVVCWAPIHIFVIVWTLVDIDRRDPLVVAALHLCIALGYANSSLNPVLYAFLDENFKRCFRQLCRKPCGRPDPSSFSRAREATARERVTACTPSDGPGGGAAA", "test": "SAR Analysis of Antagonists of the DOR Receptor using an Image-Based Assay - Set 3. [Related pubchem assays (depositor defined):AID1777, AID1785]", "format": "functional"}, "[7]": {"target": "T1, Kappa-type opioid receptor (Homo sapiens, UniProt P41145)", "T1 sequence (P41145 whole entry)": "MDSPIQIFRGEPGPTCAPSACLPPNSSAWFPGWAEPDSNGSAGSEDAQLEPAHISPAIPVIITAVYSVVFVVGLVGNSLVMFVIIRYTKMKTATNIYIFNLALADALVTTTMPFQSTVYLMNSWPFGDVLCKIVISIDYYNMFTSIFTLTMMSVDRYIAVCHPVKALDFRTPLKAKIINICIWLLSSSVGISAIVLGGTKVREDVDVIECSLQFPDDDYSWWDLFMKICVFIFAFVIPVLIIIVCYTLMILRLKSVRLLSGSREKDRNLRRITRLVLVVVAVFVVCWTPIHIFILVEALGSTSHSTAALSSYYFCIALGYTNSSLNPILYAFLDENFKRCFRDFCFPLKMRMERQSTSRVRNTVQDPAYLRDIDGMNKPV", "test": "SAR analysis of small molecule antagonists of the kappa opioid receptor via a luminescent beta-arrestin assay - Set 3. [Related pubchem assays (depositor defined):AID1777, AID1778, AID1785, AID1786, AID1966, AID2133, AID2136, AID2285, AID2495]", "format": "functional"}, "[8]": {"target": "T1, Kappa-type opioid receptor", "test": "SAR analysis of Antagonists of the Kappa Opioid Receptor (KOR) using an Image-Based Assay - Set 3. [Related pubchem assays (depositor defined):AID1777, AID1785]", "format": "functional"}, "[9]": {"test": "microbe, parasite or virus in culture", "format": "functional", "conditions": "Mycobacterium tuberculosis"}, "[10]": {"test": "Luminescence Cell-Based Dose Retest to Confirm Inhibitors of Cancer Stem Cells. [Related pubchem assays (depositor defined):AID2717, AID2721]", "format": "functional", "conditions": "Homo sapiens"}, "[11]": {"target": "Neurotensin receptor type 1 (Homo sapiens, UniProt P30989)", "sequence (P30989 whole entry)": "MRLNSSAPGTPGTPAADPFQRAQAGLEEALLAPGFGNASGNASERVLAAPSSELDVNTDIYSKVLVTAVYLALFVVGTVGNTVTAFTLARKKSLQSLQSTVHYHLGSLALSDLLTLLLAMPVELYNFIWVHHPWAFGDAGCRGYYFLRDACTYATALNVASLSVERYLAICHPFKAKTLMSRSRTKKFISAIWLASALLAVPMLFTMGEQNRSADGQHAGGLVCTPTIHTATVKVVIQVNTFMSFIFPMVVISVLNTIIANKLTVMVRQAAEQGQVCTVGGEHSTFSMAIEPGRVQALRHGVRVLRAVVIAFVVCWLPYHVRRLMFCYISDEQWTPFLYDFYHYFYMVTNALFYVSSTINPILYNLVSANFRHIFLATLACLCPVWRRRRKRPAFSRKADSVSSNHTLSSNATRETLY", "format": "functional"}, "[12]": {"test": "viability loss in THP-1 monocytes – THP-1 cells, cytotoxicity control for Vif-APOBEC3G degradation inhibitor project, dose response (AID 1117359)", "format": "functional", "conditions": "THP-1"}, "HeLa": {"system": "HeLa", "test": "Cytotoxicity counterscreen assay for transcriptional activators of heat shock protein 70 (Hsp70). [Related pubchem assays: 1203, 1252 ]", "format": "functional", "conditions": "Homo sapiens"}}, "note": "Active and inactive are the calls of the source.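 For AC50 in this document: cells exposed to compound for roughly 70 hours or longer before luminescence read.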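 For EC50 in this document: Image-based confirmatory dose-response assay measuring agonist activity at NTR1; NTR1-expressing U2OS osteosarcoma cells imaged for beta-arrestin GFP spot formation; agonist potency where compounds increase beta-arrestin recruitment.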", "data": [{"smiles": "Cc1ccc(/C=C2/SC(=S)N(CC(=O)Nc3ncc(Cc4ccc(C)cc4)s3)C2=O)cc1", "values": [{"measurement": "CC50", "setting": "[1]", "result": "37.9 µM (active)"}]}, {"smiles": "COc1ccc2oc(C(=O)OCC(=O)Nc3cc(S(=O)(=O)N4CCOCC4)ccc3C)c(C)c2c1", "values": [{"measurement": "IC50", "setting": "[2]", "result": "5.76 µM (active)"}, {"measurement": "IC50", "setting": "[3]", "result": "> 111 µM (not active)"}]}, {"smiles": "Cc1cc(-c2nnc(S)n2/N=C/c2cccc([N+](=O)[O-])c2)[nH]n1", "values": [{"measurement": "IC50", "setting": "[4]", "result": "> 100 µM (inactive)"}, {"measurement": "IC50", "setting": "[5]", "result": "3.68 µM (active)"}]}, {"smiles": "Cc1ccc(/C=N/n2c(S)nnc2-c2ccco2)cc1", "values": [{"measurement": "IC50", "setting": "Large T antigen", "result": "33.6 µM (active)"}, {"measurement": "IC50", "setting": "[4]", "result": "> 100 µM (inactive)"}, {"measurement": "IC50", "setting": "[5]", "result": "3.02 µM (active)"}]}, {"smiles": "Cc1cccc(N2CCN(CCNC(=O)Cn3c(=O)c4cccn4c4cccnc43)CC2)c1C", "values": [{"measurement": "IC50", "setting": "Mu-type opioid receptor", "result": "6.33 µM (active)"}, {"measurement": "IC50", "setting": "[6]", "result": "> 32 µM (inactive)"}, {"measurement": "IC50", "setting": "[7]", "result": "> 20 µM (inactive)"}, {"measurement": "IC50", "setting": "[8]", "result": "> 32 µM (inactive)"}]}, {"smiles": "COc1ccc(/C=C/C(=O)NCC(=O)N/N=C/c2cc(Br)ccc2OCc2ccccc2)cc1", "values": [{"measurement": "CC50", "setting": "[1]", "result": "> 40 µM (active)"}]}, {"smiles": "CC(C)c1ccc(N2C(=O)NC(=O)/C(=C\\C=C\\c3ccco3)C2=O)cc1", "values": [{"measurement": "CC50", "setting": "[9]", "result": "23.8 µM (active)"}, {"measurement": "AC50", "setting": "[10]", "result": "1.23 µM (active)"}, {"measurement": "EC50", "setting": "[11]", "result": "19 µM (active)"}, {"measurement": "CC50", "setting": "[12]", "result": "37.8 µM (active)"}]}, {"smiles": "O=C(NCC1COc2ccccc2O1)C1CCCN(S(=O)(=O)c2c[nH]cn2)C1", "note": "(stereo not drawn)", "values": [{"measurement": "CC50", "setting": "HeLa", "result": "> 99 µM (not active)"}]}]}
